# Tested on: Hartley albino guinea pigs
# Assay: Guinea pig maximization test (Magnusson and Kligman method), delayed contact hypersensitivity
# Type: in vivo
# Conditions: primary challenge
# Protocol: The potential of EAP-1 to produce delayed contact hypersensitivity in guinea pigs was evaluated by the Magnusson and Kligman Maximization Test Method.
# On day zero, twenty Hartley albino guinea pigs plus ten positive control animals, and ten vehicle control animals each received six intradermal injections, i.e. duplicate injections (0.1 ml;injection) for each of the three test groups: test material (undiluted), formaldehyde (5.0% w/v in distilled water) and acetone, respectively. Each animal also received two intradermal injections of 50% v/v Freund's Complete Adjuvant (FCA) in distilled water and two injections of the respective test or control materials in the FCA/distilled water emulsion.
# On day 6, these same groups of animals were exposed topically to a preparation of their respective test (50% w/v in acetone) or control material under ELASTOPLAST@ (a product of Beiersdorf, Inc.) bandage wrappings for approximately 48 hours.
# On day 19, all animals were topically challenged at a naive (not previously exposed) skin site using a preparation of their respective test or control material under ELASTOPLAST@ bandage wrappings for approximately 24 hours. Naive control animals were patched identically to and concurrently with the test and positive.
# On the day after removal, the sites were depilated. Later that day and again on the next day, the sites were graded for erythema (redness). […]
structure (smiles),measurement,setting,value
"C=O [positive control, formaldehyde]",sensitization classification,positive control group,extreme sensitization
same,incidence of grade 1 responses or greater,positive control group (10/10),100%

# Reference: patent EP0396405A2, “Cosmetic formulations employing esterified alkoxylated polyol carriers” (ARCO CHEMICAL TECHNOLOGY INC., priority 1989, dated 1990)
